ChEMBL document CHEMBL3526057 (Drug Metab Dispos, 2011)

What was measured:
Type in all cases: ADME
Cytochrome P450 2C19 [1] = biological target: T1, Cytochrome P450 2C19 (Homo sapiens, UniProt P33261, I19L); assay: Activity of human recombinant CYP2C19.15 mutant expressed in Saccharomyces cerevisiae BJ5457 assessed as intrinisic clearance foromeprazole 5'-hydroxylation per pmol protein after 60 mins; details: recombinant enzyme, 1 h
Cytochrome P450 2C19 [2] = biological target: T2, Cytochrome P450 2C19 (Homo sapiens, UniProt P33261, F168L); assay: Activity of human recombinant CYP2C19 F168L mutant expressed in Saccharomyces cerevisiae BJ5457 assessed as intrinisic clearance foromeprazole 5'-hydroxylation per pmol protein after 60 mins; details: recombinant enzyme, 1 h
Cytochrome P450 2C19 [3] = biological target: Cytochrome P450 2C19 (Homo sapiens, UniProt P33261, V331I/R442C); assay: Activity of human recombinant CYP2C19.16 mutant expressed in Saccharomyces cerevisiae BJ5457 assessed as omeprazole 5'-hydroxylation per pmol protein at 100 uM after 60 mins; details: recombinant enzyme, 1 h
Cytochrome P450 2C19 [4] = biological target: T3, Cytochrome P450 2C19 (Homo sapiens, UniProt P33261, R150H); assay: Activity of human recombinant CYP2C19.11 mutant expressed in Saccharomyces cerevisiae BJ5457 assessed asomeprazole 5'-hydroxylation after 60 mins; details: recombinant enzyme, 1 h
Cytochrome P450 2C19 [5] = biological target: T4, Cytochrome P450 2C19 (Homo sapiens, UniProt P33261, D360N); assay: Activity of human recombinant CYP2C19 D360N mutant expressed in Saccharomyces cerevisiae BJ5457 assessed asomeprazole 5'-hydroxylation after 60 mins; details: recombinant enzyme, 1 h
Cytochrome P450 2C19 [6] = biological target: T5, Cytochrome P450 2C19 (Homo sapiens, UniProt P33261, R329H); assay: Activity of human recombinant CYP2C19.18 mutant expressed in Saccharomyces cerevisiae BJ5457 assessed asomeprazole 5'-hydroxylation per pmol protein after 60 mins; details: recombinant enzyme, 1 h
Cytochrome P450 2C19 [7] = biological target: T2, Cytochrome P450 2C19; assay: Activity of human recombinant CYP2C19 F168L mutant expressed in Saccharomyces cerevisiae BJ5457 assessed asomeprazole 5'-hydroxylation after 60 mins; details: recombinant enzyme, 1 h
Cytochrome P450 2C19 [8] = biological target: T6, Cytochrome P450 2C19 (Homo sapiens, UniProt P33261, P227L); assay: Activity of human recombinant CYP2C19.10 mutant expressed in Saccharomyces cerevisiae BJ5457 assessed as omeprazole 5'-hydroxylation per pmol protein at 5 uM after 60 mins; details: recombinant enzyme, 1 h
[9] = biological target: CYP2C19.19 (CYP2C19 variant) (Homo sapiens, UniProt P33261, S51G); assay: Activity of human recombinant CYP2C19.19 mutant expressed in Saccharomyces cerevisiae BJ5457 assessed asomeprazole 5'-hydroxylation after 60 mins; details: probe omeprazole (5'-hydroxylation)
Cytochrome P450 2C19 [10] = biological target: T5, Cytochrome P450 2C19; assay: Activity of human recombinant CYP2C19.18 mutant expressed in Saccharomyces cerevisiae BJ5457 assessed as omeprazole 5'-hydroxylation per pmol protein at 5 uM after 60 mins; details: recombinant enzyme, 1 h
Cytochrome P450 2C19 [11] = biological target: T1, Cytochrome P450 2C19; assay: Activity of human recombinant CYP2C19.15 mutant expressed in Saccharomyces cerevisiae BJ5457 assessed as omeprazole 5'-hydroxylation per pmol protein at 100 uM after 60 mins; details: recombinant enzyme, 1 h
Cytochrome P450 2C19 [12] = biological target: Cytochrome P450 2C19 (Homo sapiens, UniProt P33261, R433W); assay: Activity of human recombinant CYP2C19.5B mutant expressed in Saccharomyces cerevisiae BJ5457 assessed as omeprazole 5'-hydroxylation per pmol protein at 5 uM after 60 mins; details: recombinant enzyme, 1 h
Cytochrome P450 2C19 [13] = biological target: T7, Cytochrome P450 2C19 (Homo sapiens, UniProt P33261, W212C); assay: Activity of human recombinant CYP2C19 W212C mutant expressed in Saccharomyces cerevisiae BJ5457 assessed as intrinisic clearance foromeprazole 5'-hydroxylation per pmol protein after 60 mins; details: recombinant enzyme, 1 h
Cytochrome P450 2C19 [14] = biological target: T8, Cytochrome P450 2C19 (Homo sapiens, UniProt P33261); assay: Activity of human recombinant CYP2C19.1B mutant expressed in Saccharomyces cerevisiae BJ5457 assessed as omeprazole 5'-hydroxylation per pmol protein at 5 uM after 60 mins; details: recombinant enzyme, 1 h
Cytochrome P450 2C19 [15] = biological target: Cytochrome P450 2C19 (Homo sapiens, UniProt P33261, S51G); assay: Activity of human recombinant CYP2C19.19 mutant expressed in Saccharomyces cerevisiae BJ5457 assessed as intrinisic clearance foromeprazole 5'-hydroxylation per pmol protein after 60 mins; details: recombinant enzyme, 1 h
Cytochrome P450 2C19 [16] = biological target: T9, Cytochrome P450 2C19 (Homo sapiens, UniProt P33261, R410C); assay: Activity of human recombinant CYP2C19.13 mutant expressed in Saccharomyces cerevisiae BJ5457 assessed asomeprazole 5'-hydroxylation per pmol protein after 60 mins; details: recombinant enzyme, 1 h
Cytochrome P450 2C19 [17] = biological target: T9, Cytochrome P450 2C19; assay: Activity of human recombinant CYP2C19.13 mutant expressed in Saccharomyces cerevisiae BJ5457 assessed asomeprazole 5'-hydroxylation after 60 mins; details: recombinant enzyme, 1 h
Cytochrome P450 2C19 [18] = biological target: T3, Cytochrome P450 2C19; assay: Activity of human recombinant CYP2C19.11 mutant expressed in Saccharomyces cerevisiae BJ5457 assessed as omeprazole 5'-hydroxylation per pmol protein at 5 uM after 60 mins; details: recombinant enzyme, 1 h
Cytochrome P450 2C19 [19] = biological target: Cytochrome P450 2C19 (Homo sapiens, UniProt P33261, L17P); assay: Activity of human recombinant CYP2C19.14 mutant expressed in Saccharomyces cerevisiae BJ5457 assessed as omeprazole 5'-hydroxylation per pmol protein at 5 uM after 60 mins; details: recombinant enzyme, 1 h
Cytochrome P450 2C19 [20] = biological target: T8, Cytochrome P450 2C19; assay: Activity of human recombinant CYP2C19.8 mutant expressed in Saccharomyces cerevisiae BJ5457 assessed as omeprazole 5'-hydroxylation per pmol protein at 100 uM after 60 mins; details: recombinant enzyme, 1 h
Cytochrome P450 2C19 [21] = biological target: T7, Cytochrome P450 2C19; assay: Activity of human recombinant CYP2C19 W212C mutant expressed in Saccharomyces cerevisiae BJ5457 assessed asomeprazole 5'-hydroxylation per pmol protein after 60 mins; details: recombinant enzyme, 1 h
Cytochrome P450 2C19 [22] = biological target: T8, Cytochrome P450 2C19; assay: Activity of human recombinant CYP2C19.1B mutant expressed in Saccharomyces cerevisiae BJ5457 assessed as omeprazole 5'-hydroxylation per pmol protein at 100 uM after 60 mins; details: recombinant enzyme, 1 h
Cytochrome P450 2C19 [23] = biological target: Cytochrome P450 2C19 (Homo sapiens, UniProt P33261, E122A); assay: Activity of human recombinant CYP2C19 E122A mutant expressed in Saccharomyces cerevisiae BJ5457 assessed asomeprazole 5'-hydroxylation per pmol protein after 60 mins; details: recombinant enzyme, 1 h
Cytochrome P450 2C19 [24] = biological target: T6, Cytochrome P450 2C19; assay: Activity of human recombinant CYP2C19.10 mutant expressed in Saccharomyces cerevisiae BJ5457 assessed as intrinisic clearance foromeprazole 5'-hydroxylation per pmol protein after 60 mins; details: recombinant enzyme, 1 h
Cytochrome P450 2C19 [25] = biological target: T5, Cytochrome P450 2C19; assay: Activity of human recombinant CYP2C19.18 mutant expressed in Saccharomyces cerevisiae BJ5457 assessed asomeprazole 5'-hydroxylation after 60 mins; details: recombinant enzyme, 1 h
Cytochrome P450 2C19 [26] = biological target: T1, Cytochrome P450 2C19; assay: Activity of human recombinant CYP2C19.15 mutant expressed in Saccharomyces cerevisiae BJ5457 assessed asomeprazole 5'-hydroxylation after 60 mins; details: recombinant enzyme, 1 h
Cytochrome P450 2C19 [27] = biological target: T4, Cytochrome P450 2C19; assay: Activity of human recombinant CYP2C19 D360N mutant expressed in Saccharomyces cerevisiae BJ5457 assessed asomeprazole 5'-hydroxylation per pmol protein after 60 mins; details: recombinant enzyme, 1 h
Cytochrome P450 2C19 [28] = biological target: T8, Cytochrome P450 2C19; assay: Activity of human recombinant CYP2C19.1B mutant expressed in Saccharomyces cerevisiae BJ5457 assessed asomeprazole 5'-hydroxylation per pmol protein after 60 mins; details: recombinant enzyme, 1 h
Cytochrome P450 2C19 [29] = biological target: T4, Cytochrome P450 2C19; assay: Activity of human recombinant CYP2C19 D360N mutant expressed in Saccharomyces cerevisiae BJ5457 assessed as intrinisic clearance foromeprazole 5'-hydroxylation per pmol protein after 60 mins; details: recombinant enzyme, 1 h
Cytochrome P450 2C19 [30] = biological target: T7, Cytochrome P450 2C19; assay: Activity of human recombinant CYP2C19 W212C mutant expressed in Saccharomyces cerevisiae BJ5457 assessed as omeprazole 5'-hydroxylation per pmol protein at 5 uM after 60 mins; details: recombinant enzyme, 1 h
Cytochrome P450 2C19 [31] = biological target: T7, Cytochrome P450 2C19; assay: Activity of human recombinant CYP2C19 W212C mutant expressed in Saccharomyces cerevisiae BJ5457 assessed asomeprazole 5'-hydroxylation after 60 mins; details: recombinant enzyme, 1 h

- CL (Cytochrome P450 2C19 [1]): 1.21 µL/min
- CL (Cytochrome P450 2C19 [2]): 0.94 µL/min
- Drug metabolism (Cytochrome P450 2C19 [3]): 1.41 pmol/min
- Km (Cytochrome P450 2C19 [4]): 4.91 µM
- Km (Cytochrome P450 2C19 [5]): 7.81 µM
- Vmax (Cytochrome P450 2C19 [6]): 7.77 pmol/min
- Km (Cytochrome P450 2C19 [7]): 6.56 µM
- Drug metabolism (Cytochrome P450 2C19 [8]): 1.94 pmol/min
- Km at 1 h [9]: 14.5 µM
- Drug metabolism (Cytochrome P450 2C19 [10]): 2.21 pmol/min
- Drug metabolism (Cytochrome P450 2C19 [11]): 7.81 pmol/min
- Drug metabolism (Cytochrome P450 2C19 [12]): metabolite_not_detected
- CL (Cytochrome P450 2C19 [13]): 0.18 µL/min
- Drug metabolism (Cytochrome P450 2C19 [14]): 2.73 pmol/min
- CL (Cytochrome P450 2C19 [15]): 0.66 µL/min
- Vmax (Cytochrome P450 2C19 [16]): 7.83 pmol/min
- Km (Cytochrome P450 2C19 [17]): 4.87 µM
- Drug metabolism (Cytochrome P450 2C19 [18]): 2.84 pmol/min
- Drug metabolism (Cytochrome P450 2C19 [19]): 2.85 pmol/min
- Drug metabolism (Cytochrome P450 2C19 [20]): 0.72 pmol/min
- Vmax (Cytochrome P450 2C19 [21]): 2.04 pmol/min
- Drug metabolism (Cytochrome P450 2C19 [22]): 5.36 pmol/min
- Vmax (Cytochrome P450 2C19 [23]): 4.89 pmol/min
- CL (Cytochrome P450 2C19 [24]): 0.5 µL/min
- Km (Cytochrome P450 2C19 [25]): 6.02 µM
- Km (Cytochrome P450 2C19 [26]): 6.78 µM
- Vmax (Cytochrome P450 2C19 [27]): 4.11 pmol/min
- Vmax (Cytochrome P450 2C19 [28]): 5.12 pmol/min
- CL (Cytochrome P450 2C19 [29]): 0.53 µL/min
- Drug metabolism (Cytochrome P450 2C19 [30]): 0.58 pmol/min
- Km (Cytochrome P450 2C19 [31]): 11.2 µM
Compound: COc1ccc2[nH]c([S+]([O-])Cc3ncc(C)c(OC)c3C)nc2c1 (stereo unspecified) [OMEPRAZOLE]
